Measurements published in article PMC10126473 (Frontiers in Pharmacology, 2023).

Assays:
[1] = Metabolic stability in plasma; conditions: for Plasma k: hamster, in vitro
[2] = Mouse PK and tissue distribution study (non-compartmental analysis); conditions: male, C57BL/6, mouse, in vivo; for Cmax: Cmax Obs
Description: The in-life study (Animal Study Protocol Number: NIH ORS-51) was conducted at the NIH Animal Facility by the Division of Veterinary Resources (DVR, Bethesda, MD). In this study, 25–35 g male C57BL/6 mice (Charles River Laboratories, Frederick, MD) were used. For the IV groups, 66 mice (33 mice per dosing group, 3 mice per timepoint) were used for a single bolus IV dose of 3 or 10 mg/kg of PDN via tail vein injection. […] The IV and PO doses were selected to obtain a complete concentration profile in plasma and tissues, based on a preliminary study. Animals were not fasted in this study. […] All dosing solutions were freshly prepared on the day of dosing. At designated time points, blood samples were collected, and mice were euthanized with CO2 in accordance with NIH ARAC Guidelines after blood collection. The death was ensured by cervical dislocation or transthoracic puncture. Lung, liver, adipose, brain, heart, small intestine, kidney, skeletal muscle, and spleen samples were obtained from mice. […] Tissue samples were rinsed with cold saline, dried on filtrate paper, weighed, and snap frozen by placing into dry ice after collection. All samples were stored at −80°C until the analysis. All blood samples were collected in K2EDTA tubes and centrifuged at 3000 g for 10 min at 4°C to obtain plasma. Plasma samples were transferred to tubes preloaded with NaF (final concentration at 5 mM in 200 µL plasma) and stored at −80°C until analysis.
For fat tissue, an additional 3-fold volume of acetonitrile was added to the water homogenate and was vortexed in a shaker for another 30 min.
A 10 μ aliquot of samples, blank controls (blank plasma or tissue homogenates), quality controls (QC), and standards were added into 200 μ acetonitrile solution with 100 ng/mL tolbutamide (internal standard, IS). All samples were then thoroughly shaken for 5 min to precipitate proteins. The samples were centrifuged at 3000 rpm and 4°C for 30 min. The supernatant was injected for UPLC-MS/MS analysis.
The mobile phase consisted of 0.1% formic acid in water (A) and 0.1% formic acid in acetonitrile (B), the flow rate was 600 μL/min. […] All analyses were carried out using a Waters Acquity I-Class UPLC interfaced with a Waters Xevo TQ-S mass spectrometer. The mass spectrometer multiple reaction monitoring (MRM) experiment was operated with an ESI source at negative mode with spray voltage of 1 kV, and temperature of 600°C. Both Q1 and Q3 were set at unit resolution. […] The correlation coefficients of the calibration curves were all greater than 0.99. […] The linear range, precision and accuracy of QCs in various tissues and plasma are shown in Supplementary Table S1 and Supplementary Table S2.
The area under the concentration vs. time curve (AUC) was calculated using the linear trapezoidal method. The terminal rate constant (λ) was obtained from the slope of at least three data points of the apparent terminal phase of the log linear concentration vs. time curve. AUC0–∞ was estimated as the sum of the AUC0–t (where t is the time of the last measurable concentration) and Ct/λ. […] Bioavailability (F) was calculated using ratios of dose-normalized AUC of PO and IV administration.

Q: For O=C(Nc1ccc([N+](=O)[O-])cc1Cl)c1cc(Cl)ccc1OC(=O)N1CCNCC1 [PDN], which Plasma k ([1]; conversion to Nc) is on record?
A: 0.0045 s⁻¹

Q: And the Plasma k ([1]; conversion to Others)?
A: 0.0146 s⁻¹

Q: What about the “kin vitro,app, PDN-total (total depletion of PDN)” value ([1]; hamster plasma, 37°C) of the same compound?
A: 0.0191 ± 0.0044 min⁻¹

Q: What about the Kp [2] of the same compound?
A: 8 to 44

Q: What about the AUC(0-inf) ([2]; iv, 3 mg/kg) of the same compound?
A: 1190 ng·h/mL

Q: And the clearance ([2]; iv, 3 mg/kg, CLp Obs, mice, IV 3 mg/kg PDN, plasma)?
A: 1.05 mL/min

Q: What about the Vd ([2]; iv, 3 mg/kg, Vdss Obs, mice, IV 3 mg/kg PDN, plasma) of the same compound?
A: 0.28 L

Q: What about the half-life ([2]; iv, 3 mg/kg, t1/2 Obs, mice, IV 3 mg/kg PDN, adipose) of the same compound?
A: 2.78 h

Q: And the half-life ([2]; iv, 3 mg/kg, t1/2 Obs, mice, IV 3 mg/kg PDN, brain)?
A: 2.23 h

Q: What about the half-life ([2]; iv, 3 mg/kg, t1/2 Obs, mice, IV 3 mg/kg PDN, heart) of the same compound?
A: 1.71 h

Q: What about the half-life ([2]; iv, 3 mg/kg, t1/2 Obs, mice, IV 3 mg/kg PDN, intestine) of the same compound?
A: 2.69 h

Q: What about the half-life ([2]; iv, 3 mg/kg, t1/2 Obs, mice, IV 3 mg/kg PDN, kidney) of the same compound?
A: 3.1 h

Q: And the half-life ([2]; iv, 3 mg/kg, t1/2 Obs, mice, IV 3 mg/kg PDN, lung)?
A: 3.09 h

Q: And the half-life ([2]; iv, 3 mg/kg, t1/2 Obs, mice, IV 3 mg/kg PDN, muscle)?
A: 1.91 h

Q: What about the half-life ([2]; iv, 3 mg/kg, t1/2 Obs, mice, IV 3 mg/kg PDN, plasma) of the same compound?
A: 3.07 h

Q: And the half-life ([2]; iv, 3 mg/kg, t1/2 Obs, mice, IV 3 mg/kg PDN, spleen)?
A: 3.44 h

Q: And the AUC(0-inf) ([2]; iv, 10 mg/kg)?
A: 4100 ng·h/mL

Q: What about the clearance ([2]; iv, 10 mg/kg, CLp Obs, mice, IV 10 mg/kg PDN, plasma) of the same compound?
A: 1.02 mL/min

Q: And the Vd ([2]; iv, 10 mg/kg, Vdss Obs, mice, IV 10 mg/kg PDN, plasma)?
A: 0.31 L

Q: And the half-life ([2]; iv, 10 mg/kg, t1/2 Obs, mice, IV 10 mg/kg PDN, brain)?
A: 3.39 h

Q: And the half-life ([2]; iv, 10 mg/kg, t1/2 Obs, mice, IV 10 mg/kg PDN, heart)?
A: 2.86 h

Q: What about the half-life ([2]; iv, 10 mg/kg, t1/2 Obs, mice, IV 10 mg/kg PDN, intestine) of the same compound?
A: 3.78 h

Q: What about the half-life ([2]; iv, 10 mg/kg, t1/2 Obs, mice, IV 10 mg/kg PDN, kidney) of the same compound?
A: 4.78 h

Q: What about the half-life ([2]; iv, 10 mg/kg, t1/2 Obs, mice, IV 10 mg/kg PDN, liver) of the same compound?
A: 3.6 h

Q: And the half-life ([2]; iv, 10 mg/kg, t1/2 Obs, mice, IV 10 mg/kg PDN, lung)?
A: 3.51 h

Q: What about the half-life ([2]; iv, 10 mg/kg, t1/2 Obs, mice, IV 10 mg/kg PDN, muscle) of the same compound?
A: 4.65 h

Q: What about the half-life ([2]; iv, 10 mg/kg, t1/2 Obs, mice, IV 10 mg/kg PDN, plasma) of the same compound?
A: 3.52 h

Q: What about the half-life ([2]; iv, 10 mg/kg, t1/2 Obs, mice, IV 10 mg/kg PDN, spleen) of the same compound?
A: 3.24 h

Q: What about the half-life ([2]; iv, 10 mg/kg, t1/2 in all other tissues, mice, IV 3 and 10 mg/kg PDN) of the same compound?
A: 1.7 to 4.8 h

Q: And the half-life ([2]; iv, 10 mg/kg, terminal t1/2 in plasma, mice, IV 3 and 10 mg/kg PDN)?
A: 3.1 to 3.5 h

Q: And the clearance ([2]; iv, 10 mg/kg, total plasma clearance (CLp), mice, IV 3 and 10 mg/kg PDN)?
A: 1.02 to 1.05 mL/min

Q: And the Vd ([2]; iv, 10 mg/kg, volume of distribution at steady-state (Vdss), mice, IV 3 and 10 mg/kg PDN)?
A: 0.28 to 0.31 L

Q: What about the AUC(0-inf) ([2]; po, 10 mg/kg) of the same compound?
A: 3520 ng·h/mL

Q: What about the CL/F ([2]; po, 10 mg/kg) of the same compound?
A: 1.18 mL/min

Q: And the Vd/F ([2]; po, 10 mg/kg)?
A: 0.33 L

Q: What about the Cmax ([2]; po, 10 mg/kg, mice, PO 10 mg/kg PDN, adipose) of the same compound?
A: 547 ng/g

Q: And the Cmax ([2]; po, 10 mg/kg, mice, PO 10 mg/kg PDN, brain)?
A: 715 ng/g

Q: What about the Cmax ([2]; po, 10 mg/kg, mice, PO 10 mg/kg PDN, heart) of the same compound?
A: 3040 ng/g

Q: And the Cmax ([2]; po, 10 mg/kg, mice, PO 10 mg/kg PDN, intestine)?
A: 15400 ng/g

Q: What about the Cmax ([2]; po, 10 mg/kg, mice, PO 10 mg/kg PDN, kidney) of the same compound?
A: 5860 ng/g

Q: What about the Cmax ([2]; po, 10 mg/kg, mice, PO 10 mg/kg PDN, liver) of the same compound?
A: 240 ng/g

Q: And the Cmax ([2]; po, 10 mg/kg, mice, PO 10 mg/kg PDN, lung)?
A: 22600 ng/g

Q: And the Cmax ([2]; po, 10 mg/kg, mice, PO 10 mg/kg PDN, muscle)?
A: 1120 ng/g

Q: What about the Cmax ([2]; po, 10 mg/kg, mice, PO 10 mg/kg PDN, plasma) of the same compound?
A: 606 ng/mL

Q: And the Cmax ([2]; po, 10 mg/kg, mice, PO 10 mg/kg PDN, spleen)?
A: 8080 ng/g

Q: And the bioavailability ([2]; po, 10 mg/kg, F (bioavailability) Obs, mice, PO 10 mg/kg PDN)?
A: 85.6%

Q: And the Tmax ([2]; po, 10 mg/kg, Tmax Obs, mice, PO 10 mg/kg PDN, adipose)?
A: 1.5 h
